Assays:
A498 = assay: 6-day growth-death assay (Cell Titer Glo); assay type: cell-based, human; details: A498, ccRCC
Method: (§1) The growth of all cell lines was evaluated over time across a wide range of seeding densities to identify conditions that permitted proliferation throughout the entire 6-day assay. Cells were plated at the optimal seeding density and after overnight incubation, a 20-point 2-fold titration of compound was added and plates were incubated for 6 days. A replicate plate of cells was harvested at the time of compound addition to quantify the starting number of cells (T0). Values obtained after the 6 day treatment were expressed as a function of the T0 value and plotted against compound concentration. The T0 value was normalized to 100% and represents the number of cells at the time of compound addition. The data were fit with a 4 parameter equation to generate a concentration response curve and the growth IC50 (gIC50) was determined. The gIC50 is the midpoint of the ‘growth window’, the difference between the number of cells at the time of compound addition (To) and the number of cells after 6 days (DMSO control). The growth-death assay can be used to quantify the net population change, clearly defining cell death (cytotoxicity) as fewer cells compared to the number at the time of compound addition (To).

G-401 = assay: 6-day growth-death assay (Cell Titer Glo); assay type: cell-based, human; details: G-401, Wilm's
Method: as §1

NOMO-1 = assay: 6-day growth-death assay (Cell Titer Glo); assay type: cell-based, human; details: NOMO-1, subtype M5
Method: as §1

TF-1 = assay: 6-day growth-death assay (Cell Titer Glo); assay type: cell-based, human; details: TF-1, subtype M6
Method: as §1

SHI-1 = assay: 6-day growth-death assay (Cell Titer Glo); assay type: cell-based, human; details: SHI-1, subtype M5
Method: as §1

ACHN = assay: 6-day growth-death assay (Cell Titer Glo); assay type: cell-based, human
Method: as §1

CAKI-2 = assay: 6-day growth-death assay (Cell Titer Glo); assay type: cell-based, human; details: CAKI-2, ccRCC
Method: as §1

MOLM-16 = assay: 6-day growth-death assay (Cell Titer Glo); assay type: cell-based, human; details: MOLM-16, subtype M0
Method: as §1

SK-NEP-1 = assay: 6-day growth-death assay (Cell Titer Glo); assay type: cell-based, human; details: SK-NEP-1, Wilm's
Method: as §1

MOLM-13 = assay: 6-day growth-death assay (Cell Titer Glo); assay type: cell-based, human; details: MOLM-13, subtype M5
Method: as §1

KASUMI-1 = assay: 6-day growth-death assay (Cell Titer Glo); assay type: cell-based, human
Method: as §1

CAKI-1 = assay: 6-day growth-death assay (Cell Titer Glo); assay type: cell-based, human; details: CAKI-1, ccRCC
Method: as §1

OCI-AML3 = assay: 6-day growth-death assay (Cell Titer Glo); assay type: cell-based, human
Method: as §1

SW156 = assay: 6-day growth-death assay (Cell Titer Glo); assay type: cell-based, human; details: SW156, ccRCC
Method: as §1

G-402 = assay: 6-day growth-death assay (Cell Titer Glo); assay type: cell-based, human; details: G-402, Leiomyoblastoma
Method: as §1

786-O = assay: 6-day growth-death assay (Cell Titer Glo); assay type: cell-based, human; details: ccRCC
Method: as §1

769-P = assay: 6-day growth-death assay (Cell Titer Glo); assay type: cell-based, human; details: ccRCC
Method: as §1

HL-60 = assay: 6-day growth-death assay (Cell Titer Glo); assay type: cell-based, human
Method: as §1

[1] = test system: panel of 4 ccRCC cell lines
[2] = test system: ADMA, MMA, SDMA in Toledo cells; assay: arginine methylation western analysis (time course and washout); assay type: cell-based, human; design: time to return of MMA to baseline after washout / time to return of ADMA to baseline after washout / time to return of SDMA to baseline after washout: dose or concentration left out as unconfirmed
Source text: (B) Representative western blots of arginine methylation marks. Regions quantified are denoted by black bars on the right of the gel.
(B) Representative western blots of arginine methylation marks. Regions quantified for (A) are denoted by black bars on the side of the gel.
As predicted, ADMA methylation decreased while MMA increased upon compound exposure (FIG. 12). […] Given the detection of numerous substrates with varying kinetics, and variability of ADMA levels among DMSO-treated samples, both the full lane and a prominent 45 kDa band were characterized to assess ADMA. Increases in MMA were apparent by 24 hours and near maximal by 48 hours while decreases in the 45 kDa ADMA band required 72-96 hours to achieve maximal effect. Increases in SDMA were apparent after 48 hours of compound exposure and continued to increase through 120 hours, consistent with the potential switch from conversion of MMA to ADMA by Type I PRMTs to SDMA by Type II PRMTs (FIG. 12).
Cells were then washed, cultured in Compound A-free media, samples were collected daily through 120 hours, and arginine methylation levels were examined by western analysis. […] SDMA appeared to continue to increase even after 6 hours of washout. This is consistent with the continued increase observed through 120 hours without any obvious plateau (FIG. 12) coupled with the durable increase in MMA that has not yet returned to baseline after washout. Durability of each modification generally reflected the kinetics of arginine methylation changes brought about by Compound A, with MMA being the most rapid.

PRMT5/MEP50 = PRMT5/MEP50 (Homo sapiens, UniProt O14744); assay: PRMT family radioactive assay; assay type: biochemical; details: 60 minute SAM:Enzyme:Compound A preincubation
Chain of PRMT5/MEP50 (O14744 whole entry): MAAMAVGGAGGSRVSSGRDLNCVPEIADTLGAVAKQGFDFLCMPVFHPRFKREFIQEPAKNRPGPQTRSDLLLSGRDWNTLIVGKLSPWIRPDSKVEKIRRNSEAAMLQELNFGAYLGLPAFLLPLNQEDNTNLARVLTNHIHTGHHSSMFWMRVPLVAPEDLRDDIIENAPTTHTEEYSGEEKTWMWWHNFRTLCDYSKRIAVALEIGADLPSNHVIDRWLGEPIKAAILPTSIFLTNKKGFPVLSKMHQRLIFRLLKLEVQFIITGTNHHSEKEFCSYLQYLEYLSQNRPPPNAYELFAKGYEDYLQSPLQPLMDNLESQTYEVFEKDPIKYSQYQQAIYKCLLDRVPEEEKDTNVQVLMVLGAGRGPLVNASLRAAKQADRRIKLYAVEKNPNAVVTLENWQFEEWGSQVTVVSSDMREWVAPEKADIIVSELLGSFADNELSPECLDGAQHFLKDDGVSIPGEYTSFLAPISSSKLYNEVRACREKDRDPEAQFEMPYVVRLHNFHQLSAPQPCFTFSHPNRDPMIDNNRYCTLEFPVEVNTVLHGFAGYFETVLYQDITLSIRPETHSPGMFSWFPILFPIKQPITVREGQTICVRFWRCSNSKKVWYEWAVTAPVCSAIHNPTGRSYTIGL
Chain of PRMT5/MEP50 (Q9BQA1 whole entry partner): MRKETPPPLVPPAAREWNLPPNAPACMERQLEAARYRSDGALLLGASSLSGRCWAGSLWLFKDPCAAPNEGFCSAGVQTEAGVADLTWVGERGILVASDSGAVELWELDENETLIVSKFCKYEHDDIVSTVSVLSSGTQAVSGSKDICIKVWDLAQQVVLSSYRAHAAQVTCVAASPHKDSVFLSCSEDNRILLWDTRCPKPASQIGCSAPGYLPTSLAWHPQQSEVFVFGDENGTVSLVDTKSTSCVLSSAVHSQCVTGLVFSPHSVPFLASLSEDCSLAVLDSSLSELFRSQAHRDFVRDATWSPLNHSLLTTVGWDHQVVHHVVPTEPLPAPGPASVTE

Question: With `CCOCC1(COCC)CCC(c2n[nH]cc2CN(C)CCNC)CC1` [Compound A] as the compound, how does the Ymin-T0 (A498) read?
Answer: 313.4

Question: And the Ymin-T0 (G-401)?
Answer: 353.7

Question: What about the Ymin-T0 (NOMO-1) of the same compound?
Answer: 259.1

Question: And the gIC100 (NOMO-1)?
Answer: 29.33 ± 0.00 µM

Question: And the Ymin-T0 (TF-1)?
Answer: 788.1

Question: What about the gIC100 (TF-1) of the same compound?
Answer: 29.33 ± 0.00 µM

Question: And the Ymin-T0 (SHI-1)?
Answer: 292.0

Question: What about the gIC100 (SHI-1) of the same compound?
Answer: 29.33 ± 0.02 µM

Question: What about the IC50 (ACHN; Homo sapiens, read-out: gIC50) of the same compound?
Answer: 100 ± 50 nM

Question: What about the Ymin-T0 (ACHN; ccRCC) of the same compound?
Answer: 96.5

Question: And the Ymin-T0 (CAKI-2)?
Answer: 169.6

Question: And the Ymin-T0 (MOLM-16)?
Answer: −68.6

Question: What about the gIC100 (MOLM-16) of the same compound?
Answer: 9.69 ± 10.58 µM

Question: What about the Ymin-T0 (SK-NEP-1) of the same compound?
Answer: 25.3

Question: And the Ymin-T0 (MOLM-13)?
Answer: −100.0

Question: And the gIC100 (MOLM-13)?
Answer: 8.64 ± 0.39 µM

Question: What about the IC50 (KASUMI-1; Homo sapiens, Kasumi 1, read-out: gIC50) of the same compound?
Answer: 360 ± 250 nM

Question: What about the Ymin-T0 (KASUMI-1; KASUMI-1, subtype M2) of the same compound?
Answer: −17.7

Question: And the gIC100 (KASUMI-1; KASUMI-1, subtype M2)?
Answer: 18.88 ± 10.55 µM

Question: And the Ymin-T0 (CAKI-1)?
Answer: 178.7

Question: And the IC50 (OCI-AML3; Homo sapiens, OCI-AML-3, read-out: gIC50)?
Answer: 870 ± 140 nM

Question: What about the Ymin-T0 (OCI-AML3; OCI-AML3, subtype M4) of the same compound?
Answer: 523.2

Question: And the gIC100 (OCI-AML3; OCI-AML3, subtype M4)?
Answer: 29.33 ± 0.00 µM

Question: And the Ymin-T0 (SW156)?
Answer: 346.7

Question: And the Ymin-T0 (G-402)?
Answer: 92.6

Question: What about the Ymin-T0 (786-O) of the same compound?
Answer: 643.7

Question: And the Ymin-T0 (769-P)?
Answer: 119.0

Question: And the Ymin-T0 (HL-60; HL-60, subtype M3)?
Answer: −33.4

Question: What about the gIC100 (HL-60; HL-60, subtype M3) of the same compound?
Answer: 6.38 ± 12.83 µM

Question: What about the IC50 (HL-60; Homo sapiens, HL-60, read-out: gIC50) of the same compound?
Answer: 20 ± 10 nM

Question: And the “percent growth inhibition reached” value ([1]; all cell lines evaluated, within 6 days)?
Answer: 100%

Question: And the “concentration at which caspase cleavage occurred” value ([1]; only at the highest concentration)?
Answer: 30 µM

Question: What about the “time after which increases in SDMA were apparent” value ([2]; 0.4 μM) of the same compound?
Answer: 48 h

Question: What about the “time by which increases in MMA were apparent” value ([2]; 0.4 μM) of the same compound?
Answer: ≤ 24 h

Question: What about the “time by which increases in MMA were near maximal” value ([2]; 0.4 μM) of the same compound?
Answer: ≤ 48 h

Question: What about the “time required for maximal decrease of 45 kDa ADMA band” value ([2]; 0.4 μM) of the same compound?
Answer: 72 to 96 h

Question: And the ADMA methylation change ([2]; 0.4 μM, up to 120 hours)?
Answer: decreased

Question: And the MMA change ([2]; 0.4 μM, up to 120 hours)?
Answer: increased

Question: What about the SDMA level change ([2]; 0.4 μM, up to 120 hours) of the same compound?
Answer: increase

Question: And the “time to return of ADMA to baseline after washout” value ([2]; then washout)?
Answer: ≤ 24 h

Question: What about the “time to return of MMA to baseline after washout” value ([2]; then washout) of the same compound?
Answer: ≤ 24 h

Question: What about the “time to return of SDMA to baseline after washout” value ([2]; then washout) of the same compound?
Answer: ≤ 96 h

Question: What about the inhibition of activity (PRMT5/MEP50) of the same compound?
Answer: failed to inhibit
